Experimental data taken from US7964631B2, “Fused tricyclic compounds as inhibitors of tumor necrosis factor-α” (Piramal Life Sciences Limited, priority 2004, dated 2011).

Key:
TNF-α [1] = assay: LPS-induced TNF-α release in BALB/c mice; type: in vivo; details: Mus musculus, 100 mg/kg po, LPS 1 mg/kg i.p. 1 h after dosing, plasma TNF-α 1.5 h after LPS, read-out: % inhibition (Mean ± SE*)
Procedure: The protocol described by Fukuda T. et al (Eur. J. Pharmacol., 391: 317-320, 2000) was followed. BALB/c mice were divided into groups of five to ten each. The test compound, suspended in Tween 80-0.5% carboxy methylcellulose (CMC), with a few drops of Tween 80 as wetting agent if necessary, was administered orally (p.o.) to the mice. One hour later, LPS dissolved in sterile, pyrogen-free saline was administered i.p. at the dose of 1 mg/kg. The negative control group received saline as an i.p injection, while all other groups received LPS. Rolipram (30 mg/kg) was used as the standard drug. One and a half hours later, blood was collected in heparin. Plasma was separated by centrifugation at 13000 rpm (Heraeus Biofuge Pico Centrifuge) at room temperature, aliquoted and stored at −70° C. until analysis.
TNF-α levels in the blood samples were assayed using ELISA and % inhibition of TNF-α release compared to the control group was calculated.

TNF-α [2] = assay: LPS-induced TNF-α production in peripheral blood mononuclear cells (secondary screening); type: cell-based; details: 4.5 h, TNF-α production in PBMC, LPS 1 μg/ml, ELISA or L929 bioassay
Procedure: (§1) TNF-α production by LPS in peripheral blood mononuclear cells (PBMC) was measured according to the method described by Henry et al (J. Bioorg. Med. Chem. Lett., 8: 3335-3340, 1998). Briefly, blood was collected from healthy donors into Potassium EDTA vacutainer tubes (Vacutest Plast/Becton Dickinson). PBMC were isolated using gradient centrifugation in Ficoll-Paque solution (Pharmacia). Isolated PBMC were suspended in RPMI 1640 culture medium (Gibco BRL, Pasley, UK) containing 10% fetal bovine serum (FBS) (Hyclone, Utah, USA), 100 U/ml penicillin (Sigma Chemical Co. St Louis, Mo.) and 100 μg/ml streptomycin (Sigma Chemical Co. St Louis, Mo.). The cell concentration was adjusted to 1×10^6 cells/ml. The viability as determined by trypan blue dye exclusion was uniformly ≧98%. The cell suspension (100 μl) was added to the wells of a 96-well culture plate. Following cell plating, 79 μl of the culture medium and 1 μl of eight different concentrations of the test compounds (final concentration 0.03, 0.1, 0.3, 1, 3, 10, 30, 100 μM) dissolved in DMSO (dimethylsulfoxide, Sigma, Mo., USA) were added to the cells. The final concentration of DMSO was adjusted to 0.5%. The appropriate DMSO concentration was used as control. Rolipram (30 μM) was used as a standard compound. The plates were incubated for 30 min at 37° C. in an atmosphere of 5% CO2. Finally, 20 μl (10 μg/ml) per well of LPS, (Escherchia coli 0127:B8, Sigma Chemical Co., St. Louis, Mo.) was added, for a final concentration of 1 μg/ml. The plates were incubated at 37° C. for 4.5 h in an atmosphere of 5% CO2. To determine the cytotoxicity of the test compounds, the cell viability was assessed using MTS (3-(4,5-dimethylthiazol-2-yl)-5-(3-carboxymethoxyphenyl)-2-(4-sulfonyl)-2H-tetrazolium) reagent (Promega) after 4.5 h of incubation. Supernatants were harvested and assayed for TNF-α by ELISA as described by the manufacturer (R&D Systems, MN, BD Biosciences Pharmingen) or by cytotoxicity bioassay in L929 cells. The 50% inhibitory concentration (IC50) values were calculated by a nonlinear regression method using GraphPad software (Prism 3.03)

[3] = tested on: peripheral blood mononuclear cells (PBMC); assay: Cytotoxicity of test compounds in PBMC, cell viability by MTS reagent; type: cell-based, human
Procedure: as §1

TNF-α [4] = assay: Whole blood cell culture assay: LPS-induced TNF-α release (primary screening); type: cell-based, human; details: Homo sapiens, Whole blood cell; test compound 1 μM; diluted whole blood of healthy donors; LPS 1 μg/ml, 4.5 h; vs DMSO control
Procedure: TNF-α production by lipopolysaccharide (LPS) in whole blood was measured according to the method described by Wilson et al (J. Immunol. Methods, 139: 233-240, 1991). Briefly, blood was collected from healthy donors into potassium EDTA vacutainer tubes (Vacutest Plast/Becton Dickinson) and diluted with RPMI 1640 culture medium (Gibco BRL, Pasley, UK) containing 100 U/ml penicillin and 100 μg/ml streptomycin, (100× solution, Sigma Chemical Co. St Louis, Mo.) with no added serum. The white blood cell count was adjusted to 1×10^6 cells/ml and 100 μl/well of the diluted blood was transferred into 96-well culture plates. Following cell plating, 79 μl of culture medium and 1 μl of the test compounds (final concentration 1 μM) dissolved in DMSO (dimethylsulfoxide, Sigma, Mo., USA) was added to the cells. The final concentration of DMSO was adjusted to 0.5%. 1 μl of vehicle (0.5% DMSO) was used as control. Rolipram (100 μM) was used as a standard compound. The plates were incubated for 30 min at 37° C. in an atmosphere of 5% CO2. Finally, 20 μl (10 μg/ml) per well of LPS (Escherchia coli 0127:B8, Sigma Chemical Co., St. Louis, Mo.) was added, for a final concentration of 1 μg/ml. Plates were incubated at 37° C. for 4.5 h in an atmosphere of 5% CO2. Supernatants were harvested and assayed for TNF-α by ELISA as described by the manufacturer (R&D Systems, MN) or by cytotoxicity bioassay in L929 cells. Percent inhibition of TNF-α release in comparison to the control was calculated.

| SMILES | inhibition in vivo at 100 mg/kg (TNF-α [1]) [%] | melting point | IC50 (TNF-α [2]) [nM] | % toxicity (10 μM), 5 h [3] [%] | inhibition at 1 µM (TNF-α [4]) [%] |
| --- | --- | --- | --- | --- | --- |
| COC(=O)c1cc(C)c2c(c1)S(=O)(=O)Cc1cc(N3CCCNCC3)cc(Cl)c1O2.Cl [Example 29, 4-Chloro-2-[1,4]diazepan-1yl-6-methyl-10,10-dioxo-10,11-dihydro-5-oxa-10lambda*6*-thia-dibenzo[a,d]cycloheptene-8-carboxylic acid methyl ester hydrochloride] | 79.1 ± 0.91 | 270 °C (dec.) | 510 | 23 | 76 |
| COC(=O)c1cc(C)c2c(c1)S(=O)(=O)Cc1cc(N3CCNCC3)cc(Cl)c1O2.Cl [Example 16, 4-Chloro-6-methyl-10,10-dioxo-2-piperazin-1-yl-10,11-dihydro-5-oxa-10lambda*6*-thia-dibenzo[a,d]-cycloheptene-8-carboxylic acid methyl ester hydrochloride] | 72.2 ± 3.17 | 277 to 280 °C | 180 | 62 | 41 |
